Measured values: PubChem BioAssay (NCI)
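Test compounds were applied to cells in 96-well plates for 48 hours at 5 doses. GI50 marks 50% less growth. TGI is the concentration that stops growth completely.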

Key:
Assay in all cases: DTP human tumour cell line panel, 48 h
MDA-MB-435 = test system: MDA-MB-435
TK-10 renal = test system: TK-10 renal
KM12 colon = test system: KM12 colon
SNB-19 CNS = test system: SNB-19 CNS
A498 renal = test system: A498 renal
HCC-2998 colon = test system: HCC-2998 colon
NCI/ADR-RES ovarian = test system: NCI/ADR-RES ovarian
HCT-116 colon = test system: HCT-116 colon
OVCAR-4 ovarian = test system: OVCAR-4 ovarian
CCRF-CEM leukemia = test system: CCRF-CEM leukemia
OVCAR-3 ovarian = test system: OVCAR-3 ovarian
HOP-62 NSCLC = test system: HOP-62 NSCLC
UACC-257 melanoma = test system: UACC-257 melanoma
HS 578T breast = test system: HS 578T breast
SF-268 CNS = test system: SF-268 CNS
HT29 colon = test system: HT29 colon
NCI-H522 lung = test system: NCI-H522 lung
RXF 393 renal = test system: RXF 393 renal
SF-539 CNS = test system: SF-539 CNS
UACC-62 melanoma = test system: UACC-62 melanoma
MALME-3M melanoma = test system: MALME-3M melanoma
HL-60(TB) leukemia = test system: HL-60(TB) leukemia
EKVX NSCLC = test system: EKVX NSCLC
K-562 leukemia = test system: K-562 leukemia
ACHN renal = test system: ACHN renal
A549 NSCLC = test system: A549 NSCLC
COLO 205 colon = test system: COLO 205 colon
NCI-H226 lung = test system: NCI-H226 lung
SF-295 CNS = test system: SF-295 CNS
SR leukemia = test system: SR leukemia
MOLT-4 leukemia = test system: MOLT-4 leukemia
BT-549 breast = test system: BT-549 breast
PC-3 prostate = test system: PC-3 prostate
SK-MEL-28 melanoma = test system: SK-MEL-28 melanoma
OVCAR-8 ovarian = test system: OVCAR-8 ovarian
UO-31 renal = test system: UO-31 renal
T-47D breast = test system: T-47D breast
SNB-75 CNS = test system: SNB-75 CNS
SK-MEL-5 melanoma = test system: SK-MEL-5 melanoma
IGROV1 ovarian = test system: IGROV1 ovarian
RPMI-8226 leukemia = test system: RPMI-8226 leukemia
LOX IMVI melanoma = test system: LOX IMVI melanoma
786-0 renal = test system: 786-0 renal
HOP-92 NSCLC = test system: HOP-92 NSCLC
SW-620 colon = test system: SW-620 colon
NCI-H23 lung = test system: NCI-H23 lung
DU-145 prostate = test system: DU-145 prostate
MCF7 breast = test system: MCF7 breast
HCT-15 colon = test system: HCT-15 colon
NCI-H460 lung = test system: NCI-H460 lung
U251 CNS = test system: U251 CNS
M14 melanoma = test system: M14 melanoma
OVCAR-5 ovarian = test system: OVCAR-5 ovarian
SK-OV-3 ovarian = test system: SK-OV-3 ovarian
SK-MEL-2 melanoma = test system: SK-MEL-2 melanoma
SN12C renal = test system: SN12C renal
MDA-MB-231 breast = test system: MDA-MB-231 breast

## Cc1cc2cc3c(Cl)c(CCCl)c(C)nc3cc2c(Cl)c1CCCl
MDA-MB-435
  TGI: 30.8 µM
TK-10 renal
  TGI: > 100 µM
KM12 colon
  TGI: 46.4 µM
SNB-19 CNS
  TGI: 85.9 µM
A498 renal
  TGI: 48.4 µM
HCC-2998 colon
  TGI: 39.7 µM
NCI/ADR-RES ovarian
  TGI: 61.8 µM
HCT-116 colon
  TGI: 31.8 µM
OVCAR-4 ovarian
  TGI: 66.3 µM
CCRF-CEM leukemia
  TGI: 48.9 µM
OVCAR-3 ovarian
  TGI: 34.4 µM
HOP-62 NSCLC
  TGI: 27.8 µM
UACC-257 melanoma
  TGI: 34.8 µM
HS 578T breast
  TGI: 30.6 µM
SF-268 CNS
  TGI: 30.9 µM
HT29 colon
  TGI: > 100 µM
NCI-H522 lung
  TGI: 37.7 µM
RXF 393 renal
  TGI: 17.5 µM
SF-539 CNS
  TGI: 30 µM
UACC-62 melanoma
  TGI: 34.4 µM
MALME-3M melanoma
  TGI: 45.7 µM
HL-60(TB) leukemia
  TGI: 27.3 µM
EKVX NSCLC
  TGI: 42.3 µM
K-562 leukemia
  TGI: 43.3 µM
ACHN renal
  TGI: 75.5 µM
A549 NSCLC
  TGI: 57.2 µM
COLO 205 colon
  TGI: 36.1 µM
NCI-H226 lung
  TGI: 20.5 µM
SF-295 CNS
  TGI: 35.2 µM
SR leukemia
  TGI: 32.9 µM
MOLT-4 leukemia
  TGI: 44.7 µM
BT-549 breast
  TGI: 47.7 µM
PC-3 prostate
  TGI: 39.6 µM
SK-MEL-28 melanoma
  TGI: 35.1 µM
OVCAR-8 ovarian
  TGI: 94.5 µM
UO-31 renal
  TGI: 50.9 µM
T-47D breast
  TGI: 69.8 µM
SNB-75 CNS
  TGI: > 100 µM
SK-MEL-5 melanoma
  TGI: 26.6 µM
IGROV1 ovarian
  TGI: > 100 µM
RPMI-8226 leukemia
  TGI: 36.5 µM
LOX IMVI melanoma
  TGI: 29.5 µM
786-0 renal
  TGI: 78.6 µM
HOP-92 NSCLC
  TGI: 35.4 µM
SW-620 colon
  TGI: 76.8 µM
NCI-H23 lung
  TGI: 63.6 µM
DU-145 prostate
  TGI: 80.3 µM
MCF7 breast
  TGI: 56.7 µM
HCT-15 colon
  TGI: > 100 µM
NCI-H460 lung
  TGI: 34.2 µM
U251 CNS
  TGI: 60 µM

## Cn1c2c(c3ccc(-c4ccn[nH]4)cc3c1=O)C(=O)c1ccccc1-2
MDA-MB-435
  GI50: 7.51 µM
  TGI: > 100 µM
TK-10 renal
  GI50: 4.02 µM
  TGI: 68.6 µM
KM12 colon
  GI50: 2.34 µM
  TGI: > 100 µM
SNB-19 CNS
  GI50: 2.71 µM
  TGI: 17.3 µM
A498 renal
  GI50: 6.44 µM
  TGI: > 100 µM
M14 melanoma
  GI50: 3.6 µM
  TGI: > 100 µM
HCC-2998 colon
  GI50: 11.6 µM
  TGI: > 100 µM
NCI/ADR-RES ovarian
  GI50: 3.78 µM
  TGI: > 100 µM
HCT-116 colon
  GI50: 1.52 µM
  TGI: 19 µM
OVCAR-4 ovarian
  GI50: 7.65 µM
  TGI: > 100 µM
CCRF-CEM leukemia
  GI50: 0.832 µM
  TGI: > 100 µM
OVCAR-5 ovarian
  GI50: 5.08 µM
  TGI: > 100 µM
OVCAR-3 ovarian
  GI50: 5.97 µM
  TGI: 76.3 µM
HOP-62 NSCLC
  GI50: 1.92 µM
  TGI: 9.89 µM
UACC-257 melanoma
  GI50: 7.79 µM
  TGI: > 100 µM
HS 578T breast
  GI50: 6.84 µM
  TGI: > 100 µM
SK-OV-3 ovarian
  GI50: 5.21 µM
  TGI: > 100 µM
SF-268 CNS
  GI50: 3.21 µM
  TGI: > 100 µM
HT29 colon
  GI50: 1.52 µM
  TGI: 4.85 µM
NCI-H522 lung
  GI50: 2.22 µM
  TGI: 23.8 µM
RXF 393 renal
  GI50: 3.61 µM
  TGI: > 100 µM
SF-539 CNS
  GI50: 2.28 µM
  TGI: 11.4 µM
UACC-62 melanoma
  GI50: 3.1 µM
  TGI: > 100 µM
MALME-3M melanoma
  GI50: 4.21 µM
  TGI: > 100 µM
HL-60(TB) leukemia
  GI50: 0.813 µM
  TGI: 5.53 µM
EKVX NSCLC
  GI50: 2.95 µM
  TGI: > 100 µM
K-562 leukemia
  GI50: 2.17 µM
  TGI: > 100 µM
ACHN renal
  GI50: 1.34 µM
  TGI: 5.78 µM
A549 NSCLC
  GI50: 1.03 µM
  TGI: 3.04 µM
COLO 205 colon
  GI50: 5.51 µM
  TGI: > 100 µM
NCI-H226 lung
  GI50: 1.83 µM
  TGI: 5.39 µM
SF-295 CNS
  GI50: 3.81 µM
  TGI: > 100 µM
BT-549 breast
  GI50: 2.29 µM
  TGI: 8.78 µM
PC-3 prostate
  GI50: 4.28 µM
  TGI: > 100 µM
SK-MEL-2 melanoma
  GI50: > 100 µM
  TGI: > 100 µM
SN12C renal
  GI50: 2.1 µM
  TGI: 8.86 µM
SK-MEL-28 melanoma
  GI50: 42.5 µM
  TGI: > 100 µM
MDA-MB-231 breast
  GI50: 4.46 µM
  TGI: 64.7 µM
OVCAR-8 ovarian
  GI50: 1.78 µM
  TGI: 34.6 µM
UO-31 renal
  GI50: 1.5 µM
  TGI: > 100 µM
T-47D breast
  GI50: 2.86 µM
  TGI: > 100 µM
SNB-75 CNS
  GI50: 6.18 µM
  TGI: > 100 µM
SK-MEL-5 melanoma
  GI50: 1.76 µM
  TGI: 5.68 µM
IGROV1 ovarian
  GI50: 2.18 µM
  TGI: > 100 µM
RPMI-8226 leukemia
  GI50: 1.77 µM
  TGI: 4.79 µM
LOX IMVI melanoma
  GI50: 1.06 µM
  TGI: 4.78 µM
786-0 renal
  GI50: 1.49 µM
  TGI: 4.46 µM
HOP-92 NSCLC
  GI50: 2.84 µM
  TGI: 9.93 µM
SW-620 colon
  GI50: 2.15 µM
  TGI: > 100 µM
NCI-H23 lung
  GI50: 2.64 µM
  TGI: > 100 µM
DU-145 prostate
  GI50: 1.71 µM
  TGI: > 100 µM
MCF7 breast
  GI50: 0.408 µM
  TGI: > 100 µM
HCT-15 colon
  GI50: 1.51 µM
  TGI: > 100 µM
NCI-H460 lung
  GI50: 0.494 µM
  TGI: 3.37 µM
U251 CNS
  GI50: 1.66 µM
  TGI: 10.5 µM
